This assay deals with T1, F508delCFTR (Homo sapiens, UniProt P13569, DEL508-508).
T1 construct: expressed in transfected cells; host or cells: CFBE4lo-F508delCFTR-HRP cells (human lung derived epithelial cell line, doxycycline-inducible)
As to the kind of experiment: Cell Surface Expression-Horse Radish Peroxidase (CSE-HRP) Assay. To be noted: for EC50: CFBE4lo-F508delCFTR-HRP cells, 18-24 hours at 33° C.; for Maximum % activity (with co-corrector): with co-corrector 2 μM. The class given is cell-based. The protocol: Cell Surface Expression-Horse Radish Peroxidase (CSE-HRP) Assay
A cellular assay for measuring the F508delCFTR cell surface expression after correction with test compounds either without or with a co-corrector (2 μM of 3-[(2R,4R)-4-({[1-(2,2-difluoro-1,3-benzodioxol-5-yl)cyclopropyl]carbonyl}amino)-7-methoxy-3,4-dihydro-2H-chromen-2-yl]benzoic acid), was developed in human lung derived epithelial cell line (CFBE4lo−) (Veit G et al, (2012) Mol Biol Cell. 23(21): 4188-4202). The development was achieved by expressing the F508delCFTR mutation along with a horseradish peroxidase (HRP) in the fourth exofacial loop, and then measuring the HRP activity using luminescence readout from these cells, CFBE4lo-F508delCFTR-HRP, that were incubated overnight with the test corrector compounds, either without or with the co-corrector. For this primary assay, the CFBE4lo-F508delCFTR-HRP cells were plated in 384-well plates (Greiner Bio-one; Cat 781080) at 4,000 cells/well along with 0.5 μg/mL doxycycline to induce the F508delCFTR-HRP expression and further incubated at 37° C., 5% CO2 for 72 hours. The test compounds were then added either without or with a co-corrector at the required concentrations and further incubated for 18-24 hours at 33° C. The highest concentration tested was 20 μM with an 8-point concentration response curve using a 3-fold dilution in both the test compound without or with the co-corrector. Three replicate plates were run to determine one EC50. All plates contained negative controls (dimethyl sulfoxide, DMSO) and positive control (2 μM of 3-[(2R,4R)-4-({[1-(2,2-difluoro-1,3-benzodioxol-5-yl)cyclopropyl]carbonyl}amino)-7-methoxy-3,4-dihydro-2H-chromen-2-yl]benzoic acid) as well as on-plate concentration response of the positive control. Post incubation, the plates were washed 5× times with Dulbecco's phosphate buffered saline (DPBS), followed by the addition of the HRP substrate, luminol (50 μL), and measuring the HRP activity using luminescence readout on EnVision® Multilabel Plate Reader (Perkin Elmer; product number 2104-0010). The raw counts from the experiment were analyzed using Accelrys® Assay Explorer v3.3.
Z′ greater than 0.5 was used as passing quality control criteria for the plates.
The Z′ is defined as: 1−[3*SDPositive Control+3*SDNegative Control/Absolute(Meanpostivie Control−MeanNegative Control)] wherein “SD” is standard deviation.
The % activity measured at each of the 8 test concentrations of the test compound added either without or with a co-corrector (2 μM of 3-[(2R,4R)-4-({[1-(2,2-difluoro-1,3-benzodioxol-5-yl)cyclopropyl]carbonyl}amino)-7-methoxy-3,4-dihydro-2H-chromen-2-yl]benzoic acid) was normalized to the on-plate positive control using the following formulae: % activity(Test compound without co-corrector)=[(test compound without co-corrector response−DMSO response)/(positive control response−DMSO response)]*100 % activity(Test compound with co-corrector)=[(test compound with co-corrector response−DMSO response)/(positive control response−DMSO response)]*100
The maximum % activity achieved for the test compound either without or with a co-corrector at any tested concentration is presented in Table 1 along with the respective EC50's calculated using the following general sigmoidal curve with variable Hill slope equation (described as Model 42 in the Accelrys® Assay Explorer v3.3 software): y=(a−d)/(1+(x/c)^b)+d
General sigmoidal curve with concentration, response, top, bottom, EC50 and Hill slope. This model describes a sigmoidal curve with an adjustable baseline, a. The equation can be used to fit curves where response is either increasing or decreasing with respect to the independent variable, “x”.
“x” is a concentration of drug under test.
“a” is the maximum response, and “d” is the minimum response
“c” is the inflection point (EC50) for the curve. That is, “y” is halfway between the lower and upper asymptotes when x=c.
“b” is the slope-factor or Hill coefficient. […]

[1] abbreviates: test compound without co-corrector, HRP luminescence readout, read-out: EC50 (without co-corrector).
[2] abbreviates: test compound without co-corrector, maximum at any tested concentration (up to 20 μM), normalized to on-plate positive control (2 μM co-corrector).
The mark [3] stands for this setting: with co-corrector 2 μM 3-[(2R,4R)-4-({[1-(2,2-difluoro-1,3-benzodioxol-5-yl)cyclopropyl]carbonyl}amino)-7-methoxy-3,4-dihydro-2H-chromen-2-yl]benzoic acid, read-out: EC50 (with co-corrector).
The mark [4] stands for this setting: maximum at any tested concentration (up to 20 μM), normalized to on-plate positive control (2 μM co-corrector).

Experimental findings from patent US10428017B2, “Modulators of the cystic fibrosis transmembrane conductance regulator protein and methods of use” (AbbVie S.à.r.l., priority 2017, dated 2019) are described below.

Read-outs that look alike come from different tables or passages of the source.

T1 sequence (P13569 with tags, fused parts or gaps DEL508-508): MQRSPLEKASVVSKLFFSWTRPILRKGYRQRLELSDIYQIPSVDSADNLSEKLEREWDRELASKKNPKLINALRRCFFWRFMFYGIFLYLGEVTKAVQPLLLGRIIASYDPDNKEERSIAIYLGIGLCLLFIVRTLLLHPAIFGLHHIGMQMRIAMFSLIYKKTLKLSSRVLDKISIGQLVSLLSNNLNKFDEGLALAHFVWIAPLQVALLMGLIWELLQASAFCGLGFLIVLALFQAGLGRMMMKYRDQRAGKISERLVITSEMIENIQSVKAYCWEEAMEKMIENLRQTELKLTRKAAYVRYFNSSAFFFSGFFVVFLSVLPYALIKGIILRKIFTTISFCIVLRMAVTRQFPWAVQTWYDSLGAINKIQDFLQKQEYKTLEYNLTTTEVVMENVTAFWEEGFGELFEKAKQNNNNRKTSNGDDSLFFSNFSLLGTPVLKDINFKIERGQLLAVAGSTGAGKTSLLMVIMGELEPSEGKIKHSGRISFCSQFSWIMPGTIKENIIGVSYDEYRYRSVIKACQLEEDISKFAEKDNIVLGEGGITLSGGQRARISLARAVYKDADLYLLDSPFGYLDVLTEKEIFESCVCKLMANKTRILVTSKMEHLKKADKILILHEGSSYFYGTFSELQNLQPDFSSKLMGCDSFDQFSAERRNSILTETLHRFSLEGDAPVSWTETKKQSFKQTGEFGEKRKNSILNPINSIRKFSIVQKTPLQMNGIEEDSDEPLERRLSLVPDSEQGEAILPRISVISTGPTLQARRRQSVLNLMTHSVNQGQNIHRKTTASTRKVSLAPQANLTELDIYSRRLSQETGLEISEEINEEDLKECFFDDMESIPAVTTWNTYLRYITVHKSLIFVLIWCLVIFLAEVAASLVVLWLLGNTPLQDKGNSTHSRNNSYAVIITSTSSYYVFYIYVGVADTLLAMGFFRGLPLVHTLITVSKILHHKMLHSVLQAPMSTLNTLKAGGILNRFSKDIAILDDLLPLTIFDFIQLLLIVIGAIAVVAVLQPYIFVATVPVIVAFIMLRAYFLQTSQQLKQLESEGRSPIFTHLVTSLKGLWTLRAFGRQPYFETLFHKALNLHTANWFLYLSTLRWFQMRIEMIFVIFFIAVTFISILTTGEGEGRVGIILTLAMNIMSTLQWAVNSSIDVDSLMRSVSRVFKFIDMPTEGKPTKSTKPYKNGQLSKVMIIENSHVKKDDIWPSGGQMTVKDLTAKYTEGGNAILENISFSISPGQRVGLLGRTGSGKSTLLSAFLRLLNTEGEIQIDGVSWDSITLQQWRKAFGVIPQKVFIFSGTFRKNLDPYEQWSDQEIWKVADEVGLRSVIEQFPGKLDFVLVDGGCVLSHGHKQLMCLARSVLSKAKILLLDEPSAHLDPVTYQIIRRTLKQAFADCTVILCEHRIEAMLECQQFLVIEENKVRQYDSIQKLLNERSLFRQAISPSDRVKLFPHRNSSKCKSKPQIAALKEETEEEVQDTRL

Usually EC50 stands for the concentration giving half of the maximal effect. On to “4-methoxy-N-(naphthalene-1-sulfonyl)-5-(trifluoromethyl)-2,3-dihydro-1-benzofuran-3-carboxamide and 4-methoxy-N-(naphthalene-1-sulfonyl)-7-(trifluoromethyl)-2,3-dihydro-1-benzofuran-3-carboxamide [Example 40]”, for which the EC50 under setting [1] is less than 3 µM and the EC50 under setting [3] was less than 3 µM. For the same compound, the “Maximum % activity (without co-corrector)” value under setting [2] is “+++ (≥150)”. The “Maximum % activity (with co-corrector)” value under setting [4] is on record as “+++ (≥350)”.
What is called Emax is the maximal effect, on the per cent scale that the assay sets. On to `COc1ccc(C2CCC2)c2c1C(C(=O)NS(=O)(=O)c1cccc3nc(C)ccc13)CCO2` (racemic) [Example 75, 8-cyclobutyl-5-methoxy-N-(2-methylquinoline-5-sulfonyl)-3,4-dihydro-2H-1-benzopyran-4-carboxamide], for which the EC50 under setting [1] fell in the range of 3 to 10 µM and the EC50 under setting [3] was less than 3 µM. Under setting [2], this compound came in with an Emax of no less than 150%. The “Maximum % activity (with co-corrector)” value under setting [4] is listed as “+++ (≥350)”.
On the same counts, the results for `COc1ccc(Cl)c2c1[C@@H](C(=O)NS(=O)(=O)c1cccc3ccccc13)CO2` (single isomer, unassigned) [Example 67] are 3 to 10 µM, less than 3 µM, no less than 150% and “+++ (≥350)”.
In the same order, the values of `COc1ccc(Cl)c2c1[C@H](C(=O)NS(=O)(=O)c1cccc3ccccc13)CO2` (single isomer, unassigned) [Example 68] are 3 to 10 µM, less than 3 µM, no less than 150% and “+++ (≥350)”.
Take `COc1ccc(Br)c2c1[C@@H](C(=O)NS(=O)(=O)c1cccc3ccccc13)CO2` (single isomer, unassigned) [Example 73]: the EC50 is, setting by setting: under setting [1], 3 to 10 µM; under setting [3], 3 to 10 µM. Under setting [2], the Emax lay in the range of 50 to 150%. For the same compound, under setting [4], the “Maximum % activity (with co-corrector)” value was “++ (≥150 and <350)”.
Take `COc1ccc(Br)c2c1[C@H](C(=O)NS(=O)(=O)c1cccc3ccccc13)CO2` (single isomer, unassigned) [Example 74]: the EC50 is less than 3 µM under setting [1] and less than 3 µM under setting [3]. This compound also yielded an Emax under setting [2] of no less than 150%. Also, the “Maximum % activity (with co-corrector)” value under setting [4] is given as “+++ (≥350)”.
On to `COc1ccc(C2CCC2)c2c1[C@@H](C(=O)NS(=O)(=O)c1cccc3ncccc13)CO2` (single isomer, unassigned) [Example 82], for which the EC50 under setting [1] was in the range of 3 to 10 µM and the EC50 under setting [3] lay in the range of 3 to 10 µM. The Emax under setting [2] is no less than 150%. The “Maximum % activity (with co-corrector)” value under setting [4] is “+++ (≥350)”.
On to `COc1ccc(C2CCC2)c2c1[C@H](C(=O)NS(=O)(=O)c1cccc3ncccc13)CO2` (single isomer, unassigned) [Example 83], for which the EC50 under setting [1] was less than 3 µM and the EC50 under setting [3] was less than 3 µM. Under setting [2], this compound displayed an Emax of no less than 150%. Moreover, the “Maximum % activity (with co-corrector)” value under setting [4] was “+++ (≥350)”.
On to `COc1ccc(C2CCC2)c2c1[C@@H](C(=O)NS(=O)(=O)c1cccc3cnn(C)c13)CO2` (single isomer, unassigned) [Example 94], for which the concentration giving a half-maximal response (EC50) reads like this: under setting [1], 3 to 10 µM; under setting [3], less than 3 µM. This compound registered an Emax under setting [2] of 50 to 150%. Moreover, under setting [4], the “Maximum % activity (with co-corrector)” value is on record as “+++ (≥350)”.
In the case of `COc1ccc(C2CCC2)c2c1[C@H](C(=O)NS(=O)(=O)c1cccc3c1CCCN3)CC(C)(C)O2` (single isomer, unassigned) [Example 97], the EC50 under setting [1] was less than 3 µM and the EC50 under setting [3] is less than 3 µM. For the same compound, the Emax under setting [2] is no less than 150%. In addition, the “Maximum % activity (with co-corrector)” value under setting [4] was “+++ (≥350)”.
`COc1ccc(C2CCC2)c2c1[C@@H](C(=O)NS(=O)(=O)c1cccc3c1NCCC3)CO2` (single isomer, unassigned) [Example 98]: the half-maximal effective concentration (EC50) is, setting by setting: under setting [1], 3 to 10 µM; under setting [3], 3 to 10 µM. In addition, under setting [2], the Emax was 50 to 150%. The “Maximum % activity (with co-corrector)” value under setting [4] was “+++ (≥350)”.
As to `COc1ccc(C2CCC2)c2c1OCC[C@H]2C(=O)NS(=O)(=O)c1cccc2ncccc12` (single isomer, unassigned) [Example 106], the concentration for a half-maximal effect (EC50) was less than 3 µM under setting [1] and less than 3 µM under setting [3]. Besides, the Emax under setting [2] was no less than 150%. Moreover, under setting [4], the “Maximum % activity (with co-corrector)” value is reported as “+++ (≥350)”.
For `COc1ccc(C2CCC2)c2c1OCC[C@@H]2C(=O)NS(=O)(=O)c1cccc2ncccc12` (single isomer, unassigned) [Example 107], the EC50 reads like this: under setting [1], 3 to 10 µM; under setting [3], 3 to 10 µM. Also, the maximum response (Emax) under setting [2] is less than 50%. Moreover, the “Maximum % activity (with co-corrector)” value under setting [4] was “++ (≥150 and <350)”.
For the compound `O=C(NS(=O)(=O)c1cccc2ccccc12)C1(c2ccccc2)CCOc2ccc(Br)cc21` (stereo not drawn) [Example 1, 6-bromo-N-(naphthalene-1-sulfonyl)-4-phenyl-3,4-dihydro-2H-1-benzopyran-4-carboxamide], the EC50 was less than 3 µM under setting [1] and less than 3 µM under setting [3]. This compound also gave an Emax under setting [2] of no less than 150%. The “Maximum % activity (with co-corrector)” value under setting [4] is reported as “+++ (≥350)”.
For the compound `CCSC[C@H]1C[C@@](C(=O)NS(=O)(=O)c2cccc3ccccc23)(c2ccccc2)c2ccccc2O1` [Example 2, (2R,4R)-2-[(ethylsulfanyl)methyl]-N-(naphthalene-1-sulfonyl)-4-phenyl-3,4-dihydro-2H-1-benzopyran-4-carboxamide], the EC50 by setting is: under setting [1], less than 3 µM; under setting [3], less than 3 µM. The Emax under setting [2] lay in the range of 50 to 150%. Moreover, under setting [4], the “Maximum % activity (with co-corrector)” value is on record as “+++ (≥350)”.
For `COc1ccc2c(c1)C(C(=O)NS(=O)(=O)c1cccc3ccccc13)(c1ccccc1)CC(C)(C)O2` (stereo not drawn) [Example 3, 6-methoxy-2,2-dimethyl-N-(naphthalene-1-sulfonyl)-4-phenyl-3,4-dihydro-2H-1-benzopyran-4-carboxamide], the EC50 was less than 3 µM under setting [1] and less than 3 µM under setting [3]. This compound also gave an Emax under setting [2] of no less than 150%. In addition, the “Maximum % activity (with co-corrector)” value under setting [4] is listed as “+++ (≥350)”.
`COc1ccc2c(c1)C(C(=O)NS(=O)(=O)c1cccc3ccccc13)(c1ccccc1)CCO2` (stereo not drawn) [Example 4, 6-methoxy-N-(naphthalene-1-sulfonyl)-4-phenyl-3,4-dihydro-2H-1-benzopyran-4-carboxamide]: the EC50 is less than 3 µM under setting [1] and less than 3 µM under setting [3]. The Emax under setting [2] was 50 to 150%. Also, the “Maximum % activity (with co-corrector)” value under setting [4] is “+++ (≥350)”.
Regarding `Cc1cc2c(c(C)c1C(=O)c1ccccc1)C(C(=O)NS(=O)(=O)c1cccc3ccccc13)CCO2` (stereo not drawn) [Example 5, 6-benzoyl-5,7-dimethyl-N-(naphthalene-1-sulfonyl)-3,4-dihydro-2H-1-benzopyran-4-carboxamide], the EC50 under setting [1] was less than 3 µM and the EC50 under setting [3] was less than 3 µM. Under setting [2], this compound came in with an Emax of no less than 150%. Besides, the “Maximum % activity (with co-corrector)” value under setting [4] was “+++ (≥350)”.
